Paper PMC11649918, “Development of a RIPK1 degrader to enhance antitumor immunity” (Nature Communications, 2024)
Residues, ends and D or L forms follow the SMILES beside them. *: point of attachment. Cbz = O=C(OCc1ccccc1)*; CH2F = FC*

Legend:
[1] = biological target: T1, RIPK1 (Homo sapiens, UniProt Q13546); assay: RIPK1 degradation by Western blot in Jurkat cells; assay type: cell-based; settings: 4 h pretreatment followed by LD4172
T1 construct: whole-cell lysates were prepared using a lysis buffer; endogenous in cells; host or cells: Jurkat
T1 sequence (Q13546 1-671): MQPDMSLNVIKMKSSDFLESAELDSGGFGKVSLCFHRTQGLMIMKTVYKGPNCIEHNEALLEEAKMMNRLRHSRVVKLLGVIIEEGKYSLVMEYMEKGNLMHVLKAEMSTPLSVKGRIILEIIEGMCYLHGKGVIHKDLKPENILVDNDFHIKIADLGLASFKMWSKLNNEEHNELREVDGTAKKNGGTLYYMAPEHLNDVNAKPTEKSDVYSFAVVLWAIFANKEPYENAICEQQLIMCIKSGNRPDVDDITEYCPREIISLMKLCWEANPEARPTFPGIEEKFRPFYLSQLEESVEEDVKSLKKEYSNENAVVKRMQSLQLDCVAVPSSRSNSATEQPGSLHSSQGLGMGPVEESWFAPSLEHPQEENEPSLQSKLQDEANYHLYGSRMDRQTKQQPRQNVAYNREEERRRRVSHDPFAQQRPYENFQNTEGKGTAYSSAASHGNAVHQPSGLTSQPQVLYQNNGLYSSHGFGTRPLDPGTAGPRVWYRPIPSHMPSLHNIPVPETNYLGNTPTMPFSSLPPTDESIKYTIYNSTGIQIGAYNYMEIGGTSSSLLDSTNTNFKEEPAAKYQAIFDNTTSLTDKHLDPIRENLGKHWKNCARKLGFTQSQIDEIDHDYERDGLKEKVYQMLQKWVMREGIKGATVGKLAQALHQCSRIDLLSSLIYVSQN
Method: (§1) Cells were seeded into six-well plates at a density of 5 × 10^5 cells/mL in 2 mL of complete culture medium. Following an overnight adaptation period, cells were treated with serially diluted LD4172 compounds for 24 h. After treatment, whole-cell lysates were prepared using a lysis buffer (1×RIPA supplemented with protease and phosphatase inhibitor cocktail). Protein concentrations in the lysates were measured using the BCA protein assay. Subsequently, equal amounts of protein (20 µg) from each sample were loaded onto a sodium dodecyl sulfate-polyacrylamide gel and separated by electrophoresis (Bio-Rad) at 120 V for 1.5 h. The separated proteins were then transferred to a polyvinylidene fluoride (PVDF) membrane using a Transblot Turbo system (Bio-Rad).
(§2) After blocking for 1 h at room temperature in 1% BSA-TBST, the membranes were incubated overnight at 4 °C with specific primary antibodies (diluted at 1:1000 in TBST) targeting the proteins of interest, including anti-RIPK1 (3493, Cell Signaling Technology (CST)), anti-cleaved caspase 3 (9661, CST), anti-cleaved caspase7 (8438, CST), anti-cleaved PARP (5625, CST), anti-HMGB1 (3935, CST), anti-calreticulin (12238, CST), and anti-β-actin (4970, CST). […] All western blots were processed and quantified using ImageJ software, and protein levels were normalized to β-actin loading controls.

[2] = biological target: T2, RIPK1 (Mus musculus, UniProt Q60855); assay: RIPK1 degradation by Western blot in B16F10 cells; assay type: cell-based; settings: 4 h pretreatment followed by LD4172
T2 construct: endogenous in cells; host or cells: B16F10
T2 sequence (Q60855 1-656): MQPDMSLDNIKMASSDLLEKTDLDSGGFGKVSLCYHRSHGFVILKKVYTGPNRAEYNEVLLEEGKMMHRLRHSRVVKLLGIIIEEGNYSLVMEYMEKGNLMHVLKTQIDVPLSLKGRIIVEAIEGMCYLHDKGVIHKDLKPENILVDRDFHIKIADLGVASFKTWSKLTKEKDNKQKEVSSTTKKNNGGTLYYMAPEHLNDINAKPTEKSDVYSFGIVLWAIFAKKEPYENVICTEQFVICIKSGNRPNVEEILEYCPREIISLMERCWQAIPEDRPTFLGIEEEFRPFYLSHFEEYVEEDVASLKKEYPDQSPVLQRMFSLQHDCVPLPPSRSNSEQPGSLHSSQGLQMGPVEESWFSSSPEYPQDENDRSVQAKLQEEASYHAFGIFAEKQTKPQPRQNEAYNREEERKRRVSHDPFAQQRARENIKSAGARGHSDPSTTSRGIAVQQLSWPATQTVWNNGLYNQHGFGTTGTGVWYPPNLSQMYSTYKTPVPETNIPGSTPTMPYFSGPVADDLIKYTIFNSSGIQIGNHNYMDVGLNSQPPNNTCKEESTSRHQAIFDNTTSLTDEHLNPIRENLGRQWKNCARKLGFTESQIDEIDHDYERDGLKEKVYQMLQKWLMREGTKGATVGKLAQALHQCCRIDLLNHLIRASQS
Method: as §1, §2

[3] = system: B16F10 cells; assay: TNFα-mediated apoptosis in B16F10 cells (Annexin V/PI, caspase 3/7, PARP); assay type: cell-based, mouse; settings: 72 h
Method: Fig. 3 LD4172 sensitizes B16F10 cells to TNFα-mediated apoptosis. B16F10 cells were treated with or without TNFα (100 ng/mL), Z-VAD-FMK (25 μM), LD4172 (1 μM), and/or T2I (1 μM) for 72 h. A NF-κB activity in B16F10 cells expressing a NanoLuc reporter for NF-κB response. Data represent the mean NF-κB activity ± SD (n = 3 biologically independent samples from two independent experiments). Statistical significance was determined using a two-tailed unpaired t-test, with P values indicated. B Representative flow cytometry dot plots showing apoptosis in B16F10 cells from three independent experiments (n = 3 biologically independent samples per experiment). […] Cell death was quantified by PI uptake using the Cytation 5 imager. D Top: Percentage of PI+ B16F10 cells after 72 h of the indicated treatments, calculated as PI+ (%) = (Number of PI+ cells/Total cells) × 100%, using the Cytation 5 imager. […] Statistical significance was determined using a two-tailed unpaired t-test, with P values indicated. […] E Top: Quantification of extracellular ATP levels secreted by B16F10 cells. Data represent mean extracellular ATP levels ± SD (n = 4 biologically independent samples from one experiment), with statistical significance determined by a two-tailed unpaired t-test, and P values indicated. […]

[4] = system: NF-κB; assay: NF-κB reporter assay in B16F10 cells; assay type: cell-based, mouse; settings: TNFα 100 ng/mL, compound 1 μM
Method: One million B16F10 cells were seeded in T25 flask. The next day, cells were transfected with the NanoLuc Reporter Vector with NF-κB Response Element (pNL3.2.NF-kB-RE; Promega; Cat. No. N1111) using Lipofectamine 3000 transfection reagent (Invitrogen) at a ratio of 1:3, DNA:Lipofectamine. After 24 h, cells were collected and seeded at 2000 cells per well in triplicate in an opaque 96 well plate. 24 h later the media was discarded and replaced with fresh DMEM media and treated with indicated cytokine cocktail for 24 h. Reporter expression was read out using the Nano-Glo Luciferase Assay System (Promega) according to the manufacturer’s instruction.

[5] = system: B16F10 tumors; assay: B16F10 syngeneic tumor model; assay type: in vivo, C57BL/6J mice; settings: compound 20 mg/kg i.p. daily plus anti-PD1 100 µg every 3 days
Method: To establish a syngeneic mouse model, 3 × 10^5 B16F10 cells resuspended in PBS were mixed 1:1 with Matrigel (354262, Corning) and subcutaneously injected into the right flank of 7-week-old wild-type female C57BL/6J mice on day 0. Tumor sizes were measured on day 6, and mice were grouped such that the average tumor volume was ~100 mm³. Treatments began on day 7. Antibodies, including anti-PD1 (100 μg, BE0146, BioXcell) and anti-CD8 (500 μg, BE0004, BioXcell), were administered intraperitoneally every 3 days in 100 μL volumes. The RIPK1 degrader LD4172 and RIPK1 kinase inhibitor T2I were delivered in 200 μL of vehicle solution (30% PEG400, 5% Tween-80, 5% DMSO) daily via intraperitoneal injection (20 mg/kg). T-cell depletion or blocking was confirmed by flow cytometry in tumor-bearing mice. Tumors were measured every 3 days starting from day 7 post-injection until euthanasia. Mice were euthanized via CO2 inhalation when the tumor size reached 1.5 cm in the longest dimension or if severe necrosis was observed. Tumor volume was calculated using the formula: (L × W ²)/2, where L represents the length and W the width. To comply with ethical guidelines and ensure data quality, animals were humanely euthanized either when tumors reached the maximum permitted size or immediately before flow cytometry analysis, which required fresh tumor tissues. […]

LD4172-induced RIPK1 degradation after pretreatment [1] | LD4172-induced RIPK1 degradation after pretreatment [2] | SMILES | also measured
reversed | reversed | CC(C)C[C@H](NC(=O)[C@H](CCc1ccccc1)NC(=O)CN1CCOCC1)C(=O)N[C@@H](Cc1ccccc1)C(=O)N[C@@H](CC(C)C)C(=O)[C@@]1(C)CO1 [carfilzomib] | –
– | – | CCn1cc(-c2ccc3c(c2)CCN3C(=O)Cc2cccc(OC(F)(F)F)c2)c2c(N)ncnc21 [T2I] | TNFα-mediated apoptosis ([3]; TNFα 100 ng/mL, compound 1 μM): did not trigger TNFα-mediated apoptosis; TNF-α-induced NF-κB activity [4]: not; tumor response in combination with anti-PD1 [5]: failed to sensitize B16F10 tumors to anti-PD1 treatment
reversed | reversed | NS(=O)(=O)OC[C@@H]1C[C@@H](n2ccc3c(N[C@H]4CCc5ccccc54)ncnc32)C[C@@H]1O [MLN4924] | –
– | – | COC(=O)C[C@H](NC(=O)[C@H](C)NC(=O)[C@@H](NC(=O)OCc1ccccc1)C(C)C)C(=O)CF [Z-VAD-FMK] (Cbz-Val-Ala-Asp(OMe)-CH2F) | reversal of apoptosis induced by TNFα and LD4172 ([3]; Z-VAD-FMK 25 μM): reversed
